Legend:
Type in all cases: in vivo
[1] = tested on: Avena fatua; test: Herbicidal activity, preemergence test (Example 66); design: key: A rating of 0 indicates growth as untreated control; a rating of 9 indicates death; conditions: pre; 1000 g/ha; assessed visually twenty days after spraying
Experimental: (§1) To evaluate their herbicidal activity, compounds according to the invention are tested using a representative range of plants: ZEAMX Zea mays ORYSA Oryza sativa GLXMA Glycine max BEAVA Beta vulgaris LIUUT Linum usitatissimum AVEFA Avena fatua ECHCG Echinochloa crus-galli SINAL Sinapsis alba
(§2) The tests fall into two categories, preemergence and postemergence. The preemergence tests involve spraying a liquid formulation of the compound onto the soil in which the seeds of the plant species mentioned above have recently been sown. The postemergence tests involve spraying a liquid formulation of the compound onto seedling plants of the above species.
(§3) The soil used in the tests is a prepared horticultural loam.
(§4) The formulations used in the tests are prepared from solutions of the test compounds in acetone containing 0.4% by weight of an alkylphenol/ethylene oxide condensate available under the trademark TRITON X-155. These acetone solutions are diluted with water and the resulting formulations applied at dosage levels corresponding to 1000 g of active material per hectare in a volume equivalent to 900 litres per hectare.
(§5) In the preemergence tests, untreated sown soil, and in the postemergence tests, untreated soil bearing seedling plants, are used as controls.
(§6) The herbicidal effects of the test compounds are assessed visually twenty days after spraying the foliage and the soil and are recorded on a 0-9 scale. A rating of 0 indicates growth as untreated control, a rating of 9 indicates death. An increase of 1 unit on the linear scale approximates to an 11% increase in the level of effect.

[2] = tested on: Beta vulgaris; test: as above; design: key: A rating of 0 indicates growth as untreated control; a rating of 9 indicates death; conditions: pre; 1000 g/ha; assessed visually twenty days after spraying
Experimental: as §1, §2, §3, §4, §5, §6

[3] = tested on: Echinochloa crus-galli; test: as above; design: key: A rating of 0 indicates growth as untreated control; a rating of 9 indicates death; conditions: pre; 1000 g/ha; assessed visually twenty days after spraying
Experimental: as §1, §2, §3, §4, §5, §6

[4] = tested on: Glycine max; test: as above; design: key: A rating of 0 indicates growth as untreated control; a rating of 9 indicates death; conditions: pre; 1000 g/ha; assessed visually twenty days after spraying
Experimental: as §1, §2, §3, §4, §5, §6

[5] = tested on: Linum usitatissimum; test: as above; design: key: A rating of 0 indicates growth as untreated control; a rating of 9 indicates death; conditions: pre; 1000 g/ha; assessed visually twenty days after spraying
Experimental: as §1, §2, §3, §4, §5, §6

[6] = tested on: Oryza sativa; test: as above; design: key: A rating of 0 indicates growth as untreated control; a rating of 9 indicates death; conditions: pre; 1000 g/ha; assessed visually twenty days after spraying
Experimental: as §1, §2, §3, §4, §5, §6

[7] = tested on: Sinapsis alba; test: as above; design: key: A rating of 0 indicates growth as untreated control; a rating of 9 indicates death; conditions: pre; 1000 g/ha; assessed visually twenty days after spraying
Experimental: as §1, §2, §3, §4, §5, §6

[8] = tested on: Zea mays; test: as above; design: key: A rating of 0 indicates growth as untreated control; a rating of 9 indicates death; conditions: pre; 1000 g/ha; assessed visually twenty days after spraying
Experimental: as §1, §2, §3, §4, §5, §6

[9] = tested on: Glycine max; test: Herbicidal activity, postemergence test (Example 66); conditions: post; 1000 g/ha; assessed visually twenty days after spraying
Experimental: as §1, §2, §3, §4, §5, §6

[10] = tested on: Avena fatua; test: as above; design: key: A rating of 0 indicates growth as untreated control; a rating of 9 indicates death; conditions: post; 1000 g/ha; assessed visually twenty days after spraying
Experimental: as §1, §2, §3, §4, §5, §6

[11] = tested on: Beta vulgaris; test: as above; design: key: A rating of 0 indicates growth as untreated control; a rating of 9 indicates death; conditions: post; 1000 g/ha; assessed visually twenty days after spraying
Experimental: as §1, §2, §3, §4, §5, §6

[12] = tested on: Echinochloa crus-galli; test: as above; design: key: A rating of 0 indicates growth as untreated control; a rating of 9 indicates death; conditions: post; 1000 g/ha; assessed visually twenty days after spraying
Experimental: as §1, §2, §3, §4, §5, §6

[13] = tested on: Linum usitatissimum; test: as above; design: key: A rating of 0 indicates growth as untreated control; a rating of 9 indicates death; conditions: post; 1000 g/ha; assessed visually twenty days after spraying
Experimental: as §1, §2, §3, §4, §5, §6

[14] = tested on: Oryza sativa; test: as above; design: key: A rating of 0 indicates growth as untreated control; a rating of 9 indicates death; conditions: post; 1000 g/ha; assessed visually twenty days after spraying
Experimental: as §1, §2, §3, §4, §5, §6

[15] = tested on: Sinapsis alba; test: as above; design: key: A rating of 0 indicates growth as untreated control; a rating of 9 indicates death; conditions: post; 1000 g/ha; assessed visually twenty days after spraying
Experimental: as §1, §2, §3, §4, §5, §6

[16] = tested on: Zea mays; test: as above; design: key: A rating of 0 indicates growth as untreated control; a rating of 9 indicates death; conditions: post; 1000 g/ha; assessed visually twenty days after spraying
Experimental: as §1, §2, §3, §4, §5, §6

SMILES	herbicidal effects on a 0-9 scale, AVEFA [1]	herbicidal effects on a 0-9 scale, BEAVA [2]	herbicidal effects on a 0-9 scale, ECHCG [3]	herbicidal effects on a 0-9 scale, GLXMA [4]	herbicidal effects on a 0-9 scale, LIUUT [5]	herbicidal effects on a 0-9 scale, ORYSA [6]	herbicidal effects on a 0-9 scale, SINAL [7]	herbicidal effects on a 0-9 scale, ZEAMX [8]	herbicidal effects on a 0-9 scale, GLXMA [9]	herbicidal effects on a 0-9 scale, AVEFA [10]	herbicidal effects on a 0-9 scale, BEAVA [11]	herbicidal effects on a 0-9 scale, ECHCG [12]	herbicidal effects on a 0-9 scale, LIUUT [13]	herbicidal effects on a 0-9 scale, ORYSA [14]	herbicidal effects on a 0-9 scale, SINAL [15]	herbicidal effects on a 0-9 scale, ZEAMX [16]
CC(C)c1nsc(C(=O)NC(C)c2cccs2)n1 (racemic) [Example 1, (R/S)-3-Isopropyl-[1,2,4]thiadiazole-5-carboxylic acid, [1-(2-thienyl)ethyl]amide]	2	7	5	0	2	0	7	0	6	5	9	9	9	0	9	0
CC(NC(=O)c1nc(-c2ccccc2)ns1)c1cccs1 (racemic) [Example 4, (R/S)-3-Phenyl-[1,2,4]thiadiazole-5-carboxylic acid, [1-(2-thienyl)ethyl]amide]	0	0	0	0	0	0	0	0	5	5	8	8	7	0	8	0
CC(C)(C)c1nsc(C(=O)NCc2cccs2)n1 [Example 7]	0	0	0	0	0	0	0	0	3	0	8	0	4	0	8	0
C[C@H](NC(=O)c1nc(-c2ccc(F)cc2)ns1)c1ccccc1 [Example 16, (S)-3-(4-Fluorophenyl)-[1,2,4]thiadiazole-5-carboxylic acid, 1-(phenylethyl)amide]	0	0	0	0	0	0	0	0	6	7	9	8	7	2	9	0
CC(C)CNC(=O)c1nc(-c2ccc(F)cc2)ns1 [Example 19]	0	0	0	0	0	0	0	0	6	0	8	0	2	0	8	0

— EP0726261A1, “Herbidical 1,2,4 thiadiazoles” (American Cyanamid Company, priority 1995, dated 1996)
